Activity calls are given as the source filed them. The rule behind the calls is not given here.
What was measured:
[1] = target: T1, Cystine/glutamate transporter (Homo sapiens, UniProt Q9UPY5); test: Inhibition of XCT (unknown origin)
T1 sequence (Q9UPY5 whole entry): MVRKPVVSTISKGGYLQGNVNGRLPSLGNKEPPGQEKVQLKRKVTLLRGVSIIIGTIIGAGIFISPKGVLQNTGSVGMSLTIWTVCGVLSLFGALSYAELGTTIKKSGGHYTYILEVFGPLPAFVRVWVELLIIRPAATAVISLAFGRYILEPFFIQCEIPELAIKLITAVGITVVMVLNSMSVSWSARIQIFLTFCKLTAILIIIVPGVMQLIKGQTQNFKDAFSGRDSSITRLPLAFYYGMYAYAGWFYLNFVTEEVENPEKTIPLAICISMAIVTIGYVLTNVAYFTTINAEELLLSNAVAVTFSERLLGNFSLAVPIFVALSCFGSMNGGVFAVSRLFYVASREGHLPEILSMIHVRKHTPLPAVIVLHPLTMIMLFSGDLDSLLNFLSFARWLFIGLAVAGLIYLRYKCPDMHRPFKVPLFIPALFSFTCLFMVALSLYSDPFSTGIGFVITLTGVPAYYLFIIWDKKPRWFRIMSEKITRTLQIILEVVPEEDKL

[2] = target: Large neutral amino acids transporter small subunit 1 (Homo sapiens) (UniProt Q01650); test: Inhibition of human LAT1 at 100 uM relative to control
Large neutral amino acids transporter small subunit 1 (Homo sapiens), sequence (Q01650 whole entry): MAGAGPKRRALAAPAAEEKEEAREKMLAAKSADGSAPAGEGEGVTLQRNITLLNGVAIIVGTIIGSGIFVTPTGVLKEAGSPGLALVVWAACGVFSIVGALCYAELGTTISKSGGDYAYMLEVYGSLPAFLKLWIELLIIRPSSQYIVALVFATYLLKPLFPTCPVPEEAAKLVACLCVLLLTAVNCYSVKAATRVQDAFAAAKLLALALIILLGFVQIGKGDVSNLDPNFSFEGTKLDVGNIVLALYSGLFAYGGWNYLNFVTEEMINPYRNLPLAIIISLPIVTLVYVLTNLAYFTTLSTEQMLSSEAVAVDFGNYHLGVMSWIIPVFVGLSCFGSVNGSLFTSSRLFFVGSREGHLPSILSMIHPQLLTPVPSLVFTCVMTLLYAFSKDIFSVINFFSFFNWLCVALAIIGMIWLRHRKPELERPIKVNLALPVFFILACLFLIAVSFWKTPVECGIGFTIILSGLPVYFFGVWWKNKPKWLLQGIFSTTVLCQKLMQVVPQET

[3] = target: T2, Cystine/glutamate transporter (Homo sapiens) (UniProt Q9UPY5); test: Inhibition of XCT in CpG-A-activated human plasmacytoid dendritic cells at 25 to 100 uM assessed as decrease in TNF production in presence of 100 uM sulfasalazine; type: cell-based; conditions: Plasmacytoid dendritic cell, dose 25-100 µM
T2 sequence (whole entry): T1 sequence (Q9UPY5 whole entry)

[4] = target: Glyceraldehyde-3-phosphate dehydrogenase (Homo sapiens) (UniProt P04406); test: Inhibition of GAPDH in CpG-A-stimulated human plasmacytoid dendritic cells at 10 uM assessed as reduction in IFNa-alpha production; type: cell-based; conditions: Plasmacytoid dendritic cell
Glyceraldehyde-3-phosphate dehydrogenase (Homo sapiens), sequence (P04406 2-335 limits assumed): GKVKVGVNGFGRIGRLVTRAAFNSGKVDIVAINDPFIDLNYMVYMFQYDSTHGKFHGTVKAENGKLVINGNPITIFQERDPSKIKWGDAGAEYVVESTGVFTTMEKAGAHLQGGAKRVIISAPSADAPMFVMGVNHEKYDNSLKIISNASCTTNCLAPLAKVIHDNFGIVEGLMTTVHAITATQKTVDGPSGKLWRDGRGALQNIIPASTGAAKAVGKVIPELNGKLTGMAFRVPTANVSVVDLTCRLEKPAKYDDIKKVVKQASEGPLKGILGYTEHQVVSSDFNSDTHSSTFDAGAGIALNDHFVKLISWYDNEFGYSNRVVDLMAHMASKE

[5] = target: Glyceraldehyde-3-phosphate dehydrogenase (Homo sapiens) (UniProt P04406); test: Inhibition of GAPDH in CpG-A-stimulated human plasmacytoid dendritic cells at 10 uM assessed as reduction in TNF production; type: cell-based; conditions: Plasmacytoid dendritic cell
[6] = target: Glyceraldehyde-3-phosphate dehydrogenase (Homo sapiens) (UniProt P04406); test: Inhibition of GAPDH in CpG-A-stimulated human plasmacytoid dendritic cells at 10 uM assessed as reduction in IFN-alpha production in presence of 1 uM oligomycin; type: cell-based; conditions: Plasmacytoid dendritic cell
[7] = target: Glyceraldehyde-3-phosphate dehydrogenase (Homo sapiens) (UniProt P04406); test: Inhibition of GAPDH in CpG-A-stimulated human plasmacytoid dendritic cells at 10 uM assessed as reduction in secreted lactate levels; type: cell-based; conditions: Plasmacytoid dendritic cell
[8] = target: Glyceraldehyde-3-phosphate dehydrogenase (Homo sapiens) (UniProt P04406); test: Inhibition of GAPDH in CpG-A-stimulated human plasmacytoid dendritic cells at 10 uM assessed as reduction in overall protein synthesis; type: cell-based; conditions: Plasmacytoid dendritic cell
[9] = target: Glyceraldehyde-3-phosphate dehydrogenase (Homo sapiens) (UniProt P04406); test: Inhibition of GAPDH in CpG-A-stimulated human plasmacytoid dendritic cells at 10 uM assessed as reduction in TNF production in presence of 1 uM oligomycin; type: cell-based; conditions: Plasmacytoid dendritic cell
[10] = test system: Plasmacytoid dendritic cell; test: Inhibition of mTORC1/mTORC2 in TLR9-activated human plasmacytoid dendritic cells at 1 uM assessed as decrease in CpG-A stimulated SLC7A11 expression; type: cell-based
[11] = target: T2, Cystine/glutamate transporter (Homo sapiens); test: Inhibition of XCT in CpG-A-activated human plasmacytoid dendritic cells at 200 uM assessed as decrease in S6 phosphorylation; type: cell-based; conditions: Plasmacytoid dendritic cell
[12] = target: T2, Cystine/glutamate transporter (Homo sapiens); test: Inhibition of XCT in CpG-A-activated human plasmacytoid dendritic cells at 200 uM assessed as decrease in IFN-alpha production; type: cell-based; conditions: Plasmacytoid dendritic cell
[13] = target: Tyrosine-protein kinase JAK2 (Homo sapiens) (UniProt O60674); test: Inhibition of JAK2 in CpG-A-activated human plasmacytoid dendritic cells at 100 uM assessed as decrease in TNF production in presence of 25 to 100 uM baricitinib; type: cell-based; conditions: Plasmacytoid dendritic cell
Tyrosine-protein kinase JAK2 (Homo sapiens), sequence (O60674 whole entry): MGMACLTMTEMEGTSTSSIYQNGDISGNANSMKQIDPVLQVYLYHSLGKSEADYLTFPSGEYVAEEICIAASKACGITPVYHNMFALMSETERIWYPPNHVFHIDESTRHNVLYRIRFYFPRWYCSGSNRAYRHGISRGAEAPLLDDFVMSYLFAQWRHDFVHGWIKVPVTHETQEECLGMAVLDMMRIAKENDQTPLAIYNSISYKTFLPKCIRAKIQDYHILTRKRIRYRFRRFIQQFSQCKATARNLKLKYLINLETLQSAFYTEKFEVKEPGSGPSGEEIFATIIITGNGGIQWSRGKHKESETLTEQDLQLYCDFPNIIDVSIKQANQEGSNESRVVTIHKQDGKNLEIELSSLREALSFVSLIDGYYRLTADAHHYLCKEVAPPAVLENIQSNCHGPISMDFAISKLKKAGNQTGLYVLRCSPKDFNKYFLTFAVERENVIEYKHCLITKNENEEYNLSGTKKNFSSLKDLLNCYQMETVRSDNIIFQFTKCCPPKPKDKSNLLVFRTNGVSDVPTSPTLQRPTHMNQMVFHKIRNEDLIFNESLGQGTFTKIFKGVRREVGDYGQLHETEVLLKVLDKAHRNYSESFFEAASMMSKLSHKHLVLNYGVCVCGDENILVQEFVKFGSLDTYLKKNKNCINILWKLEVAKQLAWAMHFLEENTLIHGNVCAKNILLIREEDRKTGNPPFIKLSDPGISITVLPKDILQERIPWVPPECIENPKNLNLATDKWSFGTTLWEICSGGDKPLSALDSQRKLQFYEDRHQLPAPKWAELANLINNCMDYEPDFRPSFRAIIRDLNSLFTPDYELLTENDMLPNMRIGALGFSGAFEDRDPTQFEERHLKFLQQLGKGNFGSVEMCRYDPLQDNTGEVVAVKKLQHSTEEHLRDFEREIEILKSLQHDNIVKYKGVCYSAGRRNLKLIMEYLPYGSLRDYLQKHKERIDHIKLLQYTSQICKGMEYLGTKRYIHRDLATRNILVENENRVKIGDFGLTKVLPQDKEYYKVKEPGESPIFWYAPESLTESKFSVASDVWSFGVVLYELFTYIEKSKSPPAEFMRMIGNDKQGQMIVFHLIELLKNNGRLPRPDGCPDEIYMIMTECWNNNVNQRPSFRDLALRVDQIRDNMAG

[14] = target: T2, Cystine/glutamate transporter (Homo sapiens); test: Inhibition of XCT in CpG-A-activated human plasmacytoid dendritic cells at 200 uM assessed as decrease in kynurenine uptake; type: cell-based; conditions: Plasmacytoid dendritic cell
[15] = target: T2, Cystine/glutamate transporter (Homo sapiens); test: Inhibition of XCT in CpG-A-activated human plasmacytoid dendritic cells at 200 uM assessed as decrease in TNF production; type: cell-based; conditions: Plasmacytoid dendritic cell
[16] = target: T2, Cystine/glutamate transporter (Homo sapiens); test: Inhibition of XCT in CpG-A-activated human plasmacytoid dendritic cells at 200 uM assessed as decrease in MYO1E expression; type: cell-based; conditions: Plasmacytoid dendritic cell
[17] = target: T2, Cystine/glutamate transporter (Homo sapiens); test: Inhibition of XCT in CpG-A-activated human plasmacytoid dendritic cells at 100 uM assessed as decrease in IFN-alpha production in presence of 25 to 100 uM baricitinib; type: cell-based; conditions: Plasmacytoid dendritic cell
[18] = target: T2, Cystine/glutamate transporter (Homo sapiens); test: Inhibition of XCT in CpG-A-activated human plasmacytoid dendritic cells at 200 uM assessed as decrease in ENPP2 expression; type: cell-based; conditions: Plasmacytoid dendritic cell
[19] = target: Tyrosine-protein kinase JAK2 (Homo sapiens) (UniProt O60674); test: Inhibition of JAK2 in IL3- and CpG-A-activated human plasmacytoid dendritic cells at 20 nM assessed as decrease in ENPP2/IFNA2 expression; type: cell-based; conditions: Plasmacytoid dendritic cell
mTORC1 (Homo sapiens) [20] = target: T3, mTORC1 (Homo sapiens) (UniProt P42345+Q8N122+Q9BVC4); conditions: Plasmacytoid dendritic cell, dose 20.0 nM
T3 sequence (Q8N122 whole entry, looked up, other chains not shown): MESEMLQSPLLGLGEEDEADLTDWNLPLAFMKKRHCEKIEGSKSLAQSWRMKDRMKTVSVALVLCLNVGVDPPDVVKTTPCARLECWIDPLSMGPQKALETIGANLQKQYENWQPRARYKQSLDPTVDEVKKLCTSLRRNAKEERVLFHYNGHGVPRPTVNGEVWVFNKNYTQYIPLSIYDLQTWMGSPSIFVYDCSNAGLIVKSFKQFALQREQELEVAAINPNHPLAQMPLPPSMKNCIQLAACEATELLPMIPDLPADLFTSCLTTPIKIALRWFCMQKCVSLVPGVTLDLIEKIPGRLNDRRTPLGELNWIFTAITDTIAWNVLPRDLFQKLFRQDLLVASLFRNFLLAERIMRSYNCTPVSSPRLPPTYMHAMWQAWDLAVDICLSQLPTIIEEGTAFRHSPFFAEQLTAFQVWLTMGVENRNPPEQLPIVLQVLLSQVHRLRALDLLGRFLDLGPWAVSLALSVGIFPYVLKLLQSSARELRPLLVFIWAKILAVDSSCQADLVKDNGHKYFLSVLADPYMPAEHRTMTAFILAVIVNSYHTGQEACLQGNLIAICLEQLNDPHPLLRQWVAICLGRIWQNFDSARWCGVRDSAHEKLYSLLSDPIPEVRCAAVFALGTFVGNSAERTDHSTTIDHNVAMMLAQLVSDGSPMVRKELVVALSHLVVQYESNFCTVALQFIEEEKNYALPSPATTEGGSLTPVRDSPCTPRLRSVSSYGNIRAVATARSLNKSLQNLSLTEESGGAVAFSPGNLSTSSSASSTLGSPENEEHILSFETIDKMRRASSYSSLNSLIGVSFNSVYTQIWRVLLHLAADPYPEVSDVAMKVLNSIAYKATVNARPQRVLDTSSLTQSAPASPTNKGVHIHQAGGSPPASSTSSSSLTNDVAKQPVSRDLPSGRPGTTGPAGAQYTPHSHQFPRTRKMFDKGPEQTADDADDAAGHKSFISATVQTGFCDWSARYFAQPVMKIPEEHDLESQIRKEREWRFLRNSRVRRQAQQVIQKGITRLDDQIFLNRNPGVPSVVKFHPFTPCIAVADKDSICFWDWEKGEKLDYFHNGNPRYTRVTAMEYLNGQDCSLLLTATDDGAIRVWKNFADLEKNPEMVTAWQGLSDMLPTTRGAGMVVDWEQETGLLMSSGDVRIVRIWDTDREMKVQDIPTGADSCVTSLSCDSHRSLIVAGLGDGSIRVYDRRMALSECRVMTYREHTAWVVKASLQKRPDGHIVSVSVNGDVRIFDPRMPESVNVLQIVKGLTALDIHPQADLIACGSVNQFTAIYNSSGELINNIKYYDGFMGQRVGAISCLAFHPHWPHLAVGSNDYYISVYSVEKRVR
T3 sequence (Q9BVC4 whole entry, looked up, other chains not shown): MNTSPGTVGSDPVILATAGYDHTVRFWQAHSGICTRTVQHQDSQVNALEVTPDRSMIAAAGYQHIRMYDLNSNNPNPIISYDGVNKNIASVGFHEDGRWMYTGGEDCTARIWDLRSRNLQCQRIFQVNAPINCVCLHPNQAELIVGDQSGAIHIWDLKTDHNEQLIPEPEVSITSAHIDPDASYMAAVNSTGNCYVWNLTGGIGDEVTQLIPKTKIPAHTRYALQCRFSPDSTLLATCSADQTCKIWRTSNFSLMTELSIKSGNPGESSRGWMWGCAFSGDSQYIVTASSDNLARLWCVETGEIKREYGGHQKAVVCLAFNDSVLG
Description: Inhibition of mTORC1 in CpG-A-stimulated human plasmacytoid dendritic cells at 20 nM assessed as decrease in lactate release

[21] = target: Tyrosine-protein kinase JAK2 (Homo sapiens) (UniProt O60674); test: Inhibition of JAK2 in TLR9-activated human plasmacytoid dendritic cells at 20 nM assessed as decrease in CpG-A stimulated SLC7A11 expression; type: cell-based; conditions: Plasmacytoid dendritic cell
mTORC1 (Homo sapiens) [22] = target: T3, mTORC1 (Homo sapiens); conditions: Plasmacytoid dendritic cell, dose 250.0 nM
Description: Inhibition of mTORC1 in CpG-A-stimulated human plasmacytoid dendritic cells at 250 nM assessed as decrease in lactate release

[23] = target: Tyrosine-protein kinase JAK2 (Homo sapiens) (UniProt O60674); test: Inhibition of JAK2 in IL3- and CpG-A-activated human plasmacytoid dendritic cells at 20 nM assessed as decrease in MYO1E/IFNA2 expression; type: cell-based; conditions: Plasmacytoid dendritic cell
[24] = test system: Plasmacytoid dendritic cell; test: Inhibition of mTORC1/mTORC2 in CpG-A and IL-3-activated human plasmacytoid dendritic cells at 200 ng/mL assessed as decrease in SLC7A5 expression; type: cell-based
[25] = test system: Plasmacytoid dendritic cell; test: Inhibition of mTORC1/mTORC2 in IL-3 and CpG-A-activated human plasmacytoid dendritic cells at 200 nM assessed as decrease in decrease in MYO1E/IFNA2 expression; type: cell-based
[26] = test system: Plasmacytoid dendritic cell; test: Inhibition of mTORC1/mTORC2 in CpG-A and IL-3-activated human plasmacytoid dendritic cells at 200 ng/mL assessed as decrease in TNF production; type: cell-based
[27] = test system: Plasmacytoid dendritic cell; test: Inhibition of mTORC1/mTORC2 in IL-3 and CpG-A-activated human plasmacytoid dendritic cells at 200 nM assessed as decrease in decrease in ENPP2/IFNA2 expression; type: cell-based
[28] = test system: Plasmacytoid dendritic cell; test: Inhibition of mTORC1/mTORC2 in CpG-A and IL-3-activated human plasmacytoid dendritic cells at 200 ng/mL assessed as decrease in SLC3A2 expression; type: cell-based
[29] = test system: Plasmacytoid dendritic cell; test: Inhibition of mTORC1/mTORC2 in CpG-A and IL-3-activated human plasmacytoid dendritic cells at 200 ng/mL assessed as decrease in IFN-alpha production; type: cell-based
[30] = target: T2, Cystine/glutamate transporter (Homo sapiens); test: Inhibition of XCT in CpG-A-activated human plasmacytoid dendritic cells at 10 uM assessed as decrease in ENPP2 expression; type: cell-based; conditions: Plasmacytoid dendritic cell
[31] = target: T2, Cystine/glutamate transporter (Homo sapiens); test: Inhibition of XCT in CpG-A-activated human plasmacytoid dendritic cells at 10 uM assessed as decrease in MYO1E expression; type: cell-based; conditions: Plasmacytoid dendritic cell
[32] = target: T2, Cystine/glutamate transporter (Homo sapiens); test: Inhibition of XCT in CpG-A-activated human plasmacytoid dendritic cells at 5 uM assessed as decrease in kynurenine uptake; type: cell-based; conditions: Plasmacytoid dendritic cell
[33] = target: T2, Cystine/glutamate transporter (Homo sapiens); test: Inhibition of XCT in CpG-A-activated human plasmacytoid dendritic cells at 5 uM assessed as decrease in IFN-alpha production; type: cell-based; conditions: Plasmacytoid dendritic cell
[34] = target: T2, Cystine/glutamate transporter (Homo sapiens); test: Inhibition of XCT in CpG-A-activated human plasmacytoid dendritic cells at 1 uM assessed as decrease in TNF production; type: cell-based; conditions: Plasmacytoid dendritic cell
[35] = target: T2, Cystine/glutamate transporter (Homo sapiens); test: Inhibition of XCT in CpG-A-activated human plasmacytoid dendritic cells at 5 uM assessed as decrease in S6 phosphorylation; type: cell-based; conditions: Plasmacytoid dendritic cell
[36] = target: T2, Cystine/glutamate transporter (Homo sapiens); test: Inhibition of XCT in CpG-A-activated human plasmacytoid dendritic cells at 5 uM assessed as decrease in TNF production; type: cell-based; conditions: Plasmacytoid dendritic cell
[37] = target: T2, Cystine/glutamate transporter (Homo sapiens); test: Inhibition of XCT in CpG-A-activated human plasmacytoid dendritic cells at 1 uM assessed as decrease in IFN-alpha production; type: cell-based; conditions: Plasmacytoid dendritic cell
[38] = test system: Plasmacytoid dendritic cell; test: Inhibition of F1F0-ATP synthase in CpG-A-stimulated human plasmacytoid dendritic cells at 1 uM assessed as reduction in IFN-alpha production in presence of 10 uM heptelidic acid; type: cell-based
[39] = test system: Plasmacytoid dendritic cell; test: Inhibition of F1F0-ATP synthase in CpG-A-stimulated human plasmacytoid dendritic cells at 1 uM assessed as reduction in TNF production in presence of 10 uM heptelidic acid; type: cell-based
[40] = test system: Plasmacytoid dendritic cell; test: Inhibition of F1F0-ATP synthase in human plasmacytoid dendritic cells at 1 uM assessed as decrease in IFN-alpha production; type: cell-based
[41] = test system: Plasmacytoid dendritic cell; test: Inhibition of F1F0-ATP synthase in human plasmacytoid dendritic cells at 1 uM assessed as decrease in TNF production; type: cell-based
[42] = test system: Plasmacytoid dendritic cell; test: Inhibition of SLC7A5/SLC3A2 in CpG-A-stimulated human plasmacytoid dendritic cells at 10 uM assessed as decrease in kynurenine transport; type: cell-based

Nc1ccc(/N=N/c2ccc(-c3ccc(/N=N/c4ccc(N)c5ccc(S(=O)(=O)O)cc45)cc3)cc2)c2cc(S(=O)(=O)O)ccc12
IC50 [1]: 4.3 µM

Nc1c(/N=N/c2ccc(Oc3ccccc3)cc2)cc(S(=O)(=O)O)c2ccccc12
IC50 [1]: 14 µM

Nc1c(/N=N/c2ccc(SSc3ccc(/N=N/c4cc(S(=O)(=O)O)c5ccccc5c4N)cc3)cc2)cc(S(=O)(=O)O)c2ccccc12
IC50 [1]: 4.3 µM

Nc1c(/N=N/c2ccc(I)cc2)cc(S(=O)(=O)O)c2ccccc12
IC50 [1]: 14 µM

FC(F)(F)Oc1ccc(/N=c2\ssnc2Cl)cc1Cl
inhibition [2]: > 90%

N#Cc1cc(Cl)ccc1/N=c1\ssnc1Cl
inhibition [2]: > 90%

CCS(=O)(=O)N1CC(CC#N)(n2cc(-c3ncnc4[nH]ccc34)cn2)C1
inhibition [3]: Active

CC(C)[C@H]1CC[C@@]2(CO2)[C@H]2C(=O)OCC(C(=O)O)=C[C@H]12
inhibition [4]: Active | inhibition [5]: Active | inhibition [6]: Active | inhibition [7]: Active | inhibition [8]: Active | inhibition [9]: Active

Nc1c(/N=N/c2ccc(Oc3ccc(/N=N/c4cc(S(=O)(=O)O)c5ccccc5c4N)cc3)cc2)cc(S(=O)(=O)O)c2ccccc12
IC50 [1]: 11 µM

Nc1c(/N=N/c2ccc(Br)cc2)cc(S(=O)(=O)O)c2ccccc12
IC50 [1]: 25 µM

Cc1cc(Nc2nc(N[C@@H](C)c3ncc(F)cn3)ncc2Cl)[nH]n1
inhibition [10]: Active

O=C(O)c1cc(/N=N/c2ccc(S(=O)(=O)Nc3ccccn3)cc2)ccc1O [SULFASALAZINE]
IC50 [1]: 10.4 µM | inhibition [11]: Active | inhibition [12]: Active | inhibition [13]: Active | inhibition [14]: Active | inhibition [15]: Active | inhibition [16]: Active | inhibition [17]: Active | inhibition [18]: Active

CO[C@H]1CC2CC[C@@H](C)[C@@](O)(O2)C(=O)C(=O)N2CCCC[C@H]2C(=O)O[C@H]([C@H](C)C[C@@H]2CC[C@@H](O)[C@H](OC)C2)CC(=O)[C@H](C)/C=C(\C)[C@@H](O)[C@@H](OC)C(=O)[C@H](C)C[C@H](C)/C=C/C=C/C=C/1C
inhibition [19]: Active | inhibition (mTORC1 (Homo sapiens) [20]): Active | inhibition [21]: Active | inhibition (mTORC1 (Homo sapiens) [22]): Active | inhibition [23]: Active

CCC(=O)N1CCN(c2ccc(-n3c(=O)ccc4cnc5ccc(-c6cnc7ccccc7c6)cc5c43)cc2C(F)(F)F)CC1
inhibition [24]: Active | inhibition [10]: Active | inhibition [25]: Active | inhibition [26]: Active | inhibition [27]: Active | inhibition [28]: Active | inhibition [29]: Active

CCOc1ccccc1-n1c(C(C)N2CCN(C(=O)COc3ccc(Cl)cc3)CC2)nc2ccccc2c1=O (stereo not given)
inhibition [30]: Active | inhibition [31]: Active | inhibition [32]: Active | inhibition [33]: Active | inhibition [34]: Active | inhibition [35]: Active | inhibition [36]: Active | inhibition [37]: Active

CC[C@H]1/C=C/C=C/C[C@@H](C)[C@H](O)[C@@](C)(O)C(=O)[C@@H](C)[C@H](O)[C@@H](C)C(=O)[C@@H](C)[C@H](O)[C@@H](C)/C=C/C(=O)O[C@@H]2[C@H](C)[C@H](CC1)O[C@]1(CC[C@H](C)[C@H](C[C@@H](C)O)O1)[C@H]2C
inhibition [38]: Active | inhibition [39]: Active | inhibition [40]: Active | inhibition [41]: inactive

NC1(C(=O)O)CC2CCC1C2 (stereo not given)
inhibition [42]: Active
